{"source": "ChEMBL document CHEMBL3734724", "about": "“Anticancer efficacy of unique pyridine-based tetraindoles” (Eur J Med Chem, 2015)", "key": {"MDA-MB-231 [1]": {"system": "MDA-MB-231", "assay": "Induction of apoptosis in human MDA-MB-231 cells assessed as DNA ladder formation at 0.2 to 3.2 uM after 48 hrs", "assay_type": "functional, cell-based"}, "MDA-MB-231 [2]": {"system": "MDA-MB-231", "assay": "Reduction of phospho-cdc2 (Tyr15) dephosphorylation in human MDA-MB-231 cells after 48 hrs by Western blot analysis", "assay_type": "functional, cell-based"}, "MDA-MB-231 [3]": {"system": "MDA-MB-231", "assay": "Cell cycle arrest in human MDA-MB-231 cells assessed as accumulation at sub-G1 phase at 0.8 uM after 24 hrs by propidium iodide staining-based flow cytometric analysis relative to control", "assay_type": "functional"}, "MDA-MB-231 [4]": {"system": "MDA-MB-231", "assay": "Cell cycle arrest in human MDA-MB-231 cells assessed as accumulation at G2/M phase at 1.6 uM after 24 hrs by propidium iodide staining-based flow cytometric analysis (reference value: 12 +/- 2%)", "assay_type": "functional"}, "[5]": {"assay": "Cytotoxicity against human M10 cells assessed as growth inhibition at 20 uM after 48 hrs by MTT assay relative to control", "assay_type": "cell-based", "details": "read-out: GI"}, "MDA-MB-231 [6]": {"system": "MDA-MB-231", "assay": "Upregulation of phosphorylated chk2 protein expression in human MDA-MB-231 cells after 48 hrs by Western blot analysis", "assay_type": "functional, cell-based"}, "MDA-MB-231 [7]": {"system": "MDA-MB-231", "assay": "Cell cycle arrest in human MDA-MB-231 cells assessed as accumulation at G0/G1 phase at 0.4 uM after 24 hrs by propidium iodide staining-based flow cytometric analysis (reference value: 57 +/- 6%)", "assay_type": "functional"}, "MDA-MB-231 [8]": {"system": "MDA-MB-231", "assay": "Cell cycle arrest in human MDA-MB-231 cells assessed as accumulation at G2/M phase at 0.4 uM after 24 hrs by propidium iodide staining-based flow cytometric analysis (reference value: 12 +/- 2%)", "assay_type": "functional"}, "MDA-MB-231 [9]": {"system": "MDA-MB-231", "assay": "Cell cycle arrest in human MDA-MB-231 cells assessed as accumulation at G0/G1 phase at 0.8 uM after 48 hrs by propidium iodide staining-based flow cytometric analysis (reference value: 57.8 +/- 0.7%)", "assay_type": "functional"}, "MDA-MB-231 [10]": {"system": "MDA-MB-231", "assay": "Cell cycle arrest in human MDA-MB-231 cells assessed as accumulation at G2/M phase after 48 hrs by propidium iodide staining-based flow cytometric analysis", "assay_type": "functional"}, "MDA-MB-231 [11]": {"system": "MDA-MB-231", "assay": "Induction of apoptosis in human MDA-MB-231 cells assessed as DNA ladder formation at 0.4 to 3.2 uM after 24 hrs", "assay_type": "functional, cell-based"}, "MDA-MB-231 [12]": {"system": "MDA-MB-231", "assay": "Cell cycle arrest in human MDA-MB-231 cells assessed as accumulation at sub-G1 phase at 1.6 uM after 48 hrs by propidium iodide staining-based flow cytometric analysis relative to control", "assay_type": "functional"}, "MDA-MB-231 [13]": {"system": "MDA-MB-231", "assay": "Cell cycle arrest in human MDA-MB-231 cells assessed as accumulation at G0/G1 phase at 0.4 uM after 48 hrs by propidium iodide staining-based flow cytometric analysis (reference value: 57.8 +/- 0.7%)", "assay_type": "functional"}}, "note": "Active and inactive are the calls of the source. The calls are words filed in the database; no cut-off is given here.", "data": [{"smiles": "Oc1ccc2[nH]cc(C(c3ccc(C(c4c[nH]c5ccc(O)cc45)c4c[nH]c5ccc(O)cc45)nc3)c3c[nH]c4ccc(O)cc34)c2c1", "values": [{"measurement": "Activity", "setting": "MDA-MB-231 [1]", "result": "Active"}, {"measurement": "Activity", "setting": "MDA-MB-231 [2]", "result": "Dose-dependent effect"}, {"measurement": "Activity", "setting": "MDA-MB-231 [3]", "result": 1.5, "unit": "%"}, {"measurement": "Activity", "setting": "MDA-MB-231 [4]", "result": 20, "unit": "%"}, {"measurement": "inhibition at 48 h, 20 µM", "setting": "[5]", "result": 37, "unit": "%"}, {"measurement": "Activity", "setting": "MDA-MB-231 [6]", "result": "Dose-dependent effect"}, {"measurement": "Activity", "setting": "MDA-MB-231 [7]", "result": 53, "unit": "%"}, {"measurement": "Activity", "setting": "MDA-MB-231 [8]", "result": 13.2, "unit": "%"}, {"measurement": "Activity", "setting": "MDA-MB-231 [9]", "result": 49, "unit": "%"}, {"measurement": "Activity", "setting": "MDA-MB-231 [10]", "result": "Dose-dependent effect"}, {"measurement": "Activity", "setting": "MDA-MB-231 [11]", "result": "inactive"}, {"measurement": "Activity", "setting": "MDA-MB-231 [12]", "result": 23, "unit": "%"}, {"measurement": "Activity", "setting": "MDA-MB-231 [13]", "result": 54, "unit": "%"}]}]}
